According to PubChem BioAssay (NCI):
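A five-concentration, 48-hour dose response in 96-well plates underlies each endpoint, interpolated linearly between surrounding concentrations. The concentration for full growth arrest is given as TGI.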

Experiments:
Test in all cases: NCI-60 cell line screen, 48 h
786-0 renal = test system: 786-0 renal
A498 renal = test system: A498 renal
A549 NSCLC = test system: A549 NSCLC
ACHN renal = test system: ACHN renal
BT-549 breast = test system: BT-549 breast
CAKI-1 renal = test system: CAKI-1 renal
COLO 205 colon = test system: COLO 205 colon
DU-145 prostate = test system: DU-145 prostate
HCC-2998 colon = test system: HCC-2998 colon
HCT-116 colon = test system: HCT-116 colon
HCT-15 colon = test system: HCT-15 colon
HL-60(TB) leukemia = test system: HL-60(TB) leukemia
HOP-92 NSCLC = test system: HOP-92 NSCLC
HS 578T breast = test system: HS 578T breast
HT29 colon = test system: HT29 colon
K-562 leukemia = test system: K-562 leukemia
KM12 colon = test system: KM12 colon
LOX IMVI melanoma = test system: LOX IMVI melanoma
M14 melanoma = test system: M14 melanoma
MCF7 breast = test system: MCF7 breast
MDA-MB-231 breast = test system: MDA-MB-231 breast
MDA-MB-435 = test system: MDA-MB-435
MDA-N = test system: MDA-N
MOLT-4 leukemia = test system: MOLT-4 leukemia
NCI-H226 lung = test system: NCI-H226 lung
NCI-H23 lung = test system: NCI-H23 lung
NCI-H460 lung = test system: NCI-H460 lung
NCI/ADR-RES ovarian = test system: NCI/ADR-RES ovarian
OVCAR-3 ovarian = test system: OVCAR-3 ovarian
OVCAR-4 ovarian = test system: OVCAR-4 ovarian
OVCAR-5 ovarian = test system: OVCAR-5 ovarian
OVCAR-8 ovarian = test system: OVCAR-8 ovarian
PC-3 prostate = test system: PC-3 prostate
RPMI-8226 leukemia = test system: RPMI-8226 leukemia
RXF 393 renal = test system: RXF 393 renal
SF-268 CNS = test system: SF-268 CNS
SF-295 CNS = test system: SF-295 CNS
SF-539 CNS = test system: SF-539 CNS
SK-MEL-2 melanoma = test system: SK-MEL-2 melanoma
SK-MEL-28 melanoma = test system: SK-MEL-28 melanoma
SK-MEL-5 melanoma = test system: SK-MEL-5 melanoma
SK-OV-3 ovarian = test system: SK-OV-3 ovarian
SN12C renal = test system: SN12C renal
SNB-19 CNS = test system: SNB-19 CNS
SNB-75 CNS = test system: SNB-75 CNS
SR leukemia = test system: SR leukemia
SW-620 colon = test system: SW-620 colon
T-47D breast = test system: T-47D breast
U251 CNS = test system: U251 CNS
UACC-257 melanoma = test system: UACC-257 melanoma
UACC-62 melanoma = test system: UACC-62 melanoma
UO-31 renal = test system: UO-31 renal
CCRF-CEM leukemia = test system: CCRF-CEM leukemia
EKVX NSCLC = test system: EKVX NSCLC
HOP-62 NSCLC = test system: HOP-62 NSCLC
IGROV1 ovarian = test system: IGROV1 ovarian
MALME-3M melanoma = test system: MALME-3M melanoma
NCI-H522 lung = test system: NCI-H522 lung
TK-10 renal = test system: TK-10 renal

COC(=O)C(=O)C(C(=O)C(=O)Nc1ccc([N+](=O)[O-])cc1[N+](=O)[O-])c1nc2ccc(Cl)cc2[nH]c1=O (stereo unspecified)
TGI (786-0 renal): > 100 µM
TGI (A498 renal): > 100 µM
TGI (A549 NSCLC): > 100 µM
TGI (ACHN renal): > 100 µM
TGI (BT-549 breast): > 100 µM
TGI (CAKI-1 renal): > 100 µM
TGI (COLO 205 colon): > 100 µM
TGI (DU-145 prostate): > 100 µM
TGI (HCC-2998 colon): > 100 µM
TGI (HCT-116 colon): > 100 µM
TGI (HCT-15 colon): > 100 µM
TGI (HL-60(TB) leukemia): > 100 µM
TGI (HOP-92 NSCLC): > 100 µM
TGI (HS 578T breast): 90.8 µM
TGI (HT29 colon): > 100 µM
TGI (K-562 leukemia): > 100 µM
TGI (KM12 colon): > 100 µM
TGI (LOX IMVI melanoma): > 100 µM
TGI (M14 melanoma): > 100 µM
TGI (MCF7 breast): > 100 µM
TGI (MDA-MB-231 breast): > 100 µM
TGI (MDA-MB-435): > 100 µM
TGI (MDA-N): > 100 µM
TGI (MOLT-4 leukemia): > 100 µM
TGI (NCI-H226 lung): > 100 µM
TGI (NCI-H23 lung): > 100 µM
TGI (NCI-H460 lung): > 100 µM
TGI (NCI/ADR-RES ovarian): > 100 µM
TGI (OVCAR-3 ovarian): > 100 µM
TGI (OVCAR-4 ovarian): > 100 µM
TGI (OVCAR-5 ovarian): > 100 µM
TGI (OVCAR-8 ovarian): > 100 µM
TGI (PC-3 prostate): > 100 µM
TGI (RPMI-8226 leukemia): > 100 µM
TGI (RXF 393 renal): > 100 µM
TGI (SF-268 CNS): > 100 µM
TGI (SF-295 CNS): > 100 µM
TGI (SF-539 CNS): > 100 µM
TGI (SK-MEL-2 melanoma): > 100 µM
TGI (SK-MEL-28 melanoma): > 100 µM
TGI (SK-MEL-5 melanoma): > 100 µM
TGI (SK-OV-3 ovarian): > 100 µM
TGI (SN12C renal): > 100 µM
TGI (SNB-19 CNS): > 100 µM
TGI (SNB-75 CNS): 73.1 µM
TGI (SR leukemia): > 100 µM
TGI (SW-620 colon): > 100 µM
TGI (T-47D breast): > 100 µM
TGI (U251 CNS): > 100 µM
TGI (UACC-257 melanoma): > 100 µM
TGI (UACC-62 melanoma): > 100 µM
TGI (UO-31 renal): > 100 µM

Cc1ccc(Nc2nc3ccccc3c(=O)n2N)cc1
TGI (786-0 renal): > 100 µM
TGI (A549 NSCLC): > 100 µM
TGI (ACHN renal): > 100 µM
TGI (BT-549 breast): > 100 µM
TGI (CAKI-1 renal): > 100 µM
TGI (CCRF-CEM leukemia): > 100 µM
TGI (COLO 205 colon): > 100 µM
TGI (DU-145 prostate): > 100 µM
TGI (EKVX NSCLC): > 100 µM
TGI (HCC-2998 colon): > 100 µM
TGI (HCT-116 colon): > 100 µM
TGI (HCT-15 colon): > 100 µM
TGI (HL-60(TB) leukemia): > 100 µM
TGI (HOP-62 NSCLC): > 100 µM
TGI (HOP-92 NSCLC): > 100 µM
TGI (HS 578T breast): > 100 µM
TGI (HT29 colon): > 100 µM
TGI (IGROV1 ovarian): > 100 µM
TGI (K-562 leukemia): > 100 µM
TGI (KM12 colon): > 100 µM
TGI (LOX IMVI melanoma): > 100 µM
TGI (M14 melanoma): > 100 µM
TGI (MALME-3M melanoma): > 100 µM
TGI (MCF7 breast): > 100 µM
TGI (MDA-MB-231 breast): > 100 µM
TGI (MDA-MB-435): > 100 µM
TGI (MDA-N): > 100 µM
TGI (MOLT-4 leukemia): > 100 µM
TGI (NCI-H226 lung): > 100 µM
TGI (NCI-H23 lung): > 100 µM
TGI (NCI-H460 lung): > 100 µM
TGI (NCI-H522 lung): > 100 µM
TGI (NCI/ADR-RES ovarian): > 100 µM
TGI (OVCAR-3 ovarian): > 100 µM
TGI (OVCAR-4 ovarian): > 100 µM
TGI (OVCAR-5 ovarian): > 100 µM
TGI (OVCAR-8 ovarian): > 100 µM
TGI (PC-3 prostate): > 100 µM
TGI (RPMI-8226 leukemia): > 100 µM
TGI (RXF 393 renal): > 100 µM
TGI (SF-268 CNS): > 100 µM
TGI (SF-295 CNS): > 100 µM
TGI (SF-539 CNS): > 100 µM
TGI (SK-MEL-2 melanoma): > 100 µM
TGI (SK-MEL-28 melanoma): > 100 µM
TGI (SK-MEL-5 melanoma): > 100 µM
TGI (SK-OV-3 ovarian): > 100 µM
TGI (SN12C renal): > 100 µM
TGI (SNB-19 CNS): > 100 µM
TGI (SNB-75 CNS): > 100 µM
TGI (SR leukemia): > 100 µM
TGI (SW-620 colon): > 100 µM
TGI (T-47D breast): > 100 µM
TGI (TK-10 renal): > 100 µM
TGI (U251 CNS): > 100 µM
TGI (UACC-257 melanoma): > 100 µM
TGI (UACC-62 melanoma): > 100 µM
TGI (UO-31 renal): > 100 µM

COC(=O)/C=C/CC(=O)NS(C)(=O)=O
TGI (786-0 renal): > 10 µM
TGI (A498 renal): > 10 µM
TGI (A549 NSCLC): > 10 µM
TGI (ACHN renal): > 10 µM
TGI (BT-549 breast): > 10 µM
TGI (CAKI-1 renal): > 10 µM
TGI (CCRF-CEM leukemia): > 10 µM
TGI (COLO 205 colon): > 10 µM
TGI (DU-145 prostate): > 10 µM
TGI (EKVX NSCLC): > 10 µM
TGI (HCC-2998 colon): > 10 µM
TGI (HCT-116 colon): > 10 µM
TGI (HCT-15 colon): > 10 µM
TGI (HL-60(TB) leukemia): > 10 µM
TGI (HOP-62 NSCLC): > 10 µM
TGI (HS 578T breast): > 10 µM
TGI (HT29 colon): > 10 µM
TGI (IGROV1 ovarian): > 10 µM
TGI (KM12 colon): > 10 µM
TGI (LOX IMVI melanoma): > 10 µM
TGI (M14 melanoma): > 10 µM
TGI (MALME-3M melanoma): > 10 µM
TGI (MCF7 breast): > 10 µM
TGI (MDA-MB-231 breast): > 10 µM
TGI (MDA-MB-435): > 10 µM
TGI (MDA-N): > 10 µM
TGI (MOLT-4 leukemia): > 10 µM
TGI (NCI-H226 lung): > 10 µM
TGI (NCI-H23 lung): > 10 µM
TGI (NCI-H460 lung): > 10 µM
TGI (NCI-H522 lung): > 10 µM
TGI (NCI/ADR-RES ovarian): > 10 µM
TGI (OVCAR-3 ovarian): > 10 µM
TGI (OVCAR-4 ovarian): > 10 µM
TGI (OVCAR-5 ovarian): > 10 µM
TGI (OVCAR-8 ovarian): > 10 µM
TGI (PC-3 prostate): > 10 µM
TGI (RPMI-8226 leukemia): > 10 µM
TGI (RXF 393 renal): > 10 µM
TGI (SF-268 CNS): > 10 µM
TGI (SF-295 CNS): > 10 µM
TGI (SF-539 CNS): > 10 µM
TGI (SK-MEL-2 melanoma): > 10 µM
TGI (SK-MEL-28 melanoma): > 10 µM
TGI (SK-MEL-5 melanoma): > 10 µM
TGI (SK-OV-3 ovarian): > 10 µM
TGI (SN12C renal): > 10 µM
TGI (SNB-19 CNS): > 10 µM
TGI (SR leukemia): > 10 µM
TGI (SW-620 colon): > 10 µM
TGI (T-47D breast): > 10 µM
TGI (TK-10 renal): > 10 µM
TGI (U251 CNS): > 10 µM
TGI (UACC-257 melanoma): > 10 µM
TGI (UACC-62 melanoma): > 10 µM
TGI (UO-31 renal): > 10 µM
